In patent US20100029604A1, “ANTIBACTERIAL COMBINATION AND ITS USE” (priority 2007, published 2010):

Key:
Type in all cases: cell-based
Escherichia coli CMY-2 = experiment: MIC, characterised β-lactamase producing strain (Example 5, Tables 5-7)
Experimental: (§1) The MIC experiments were performed in duplicate in 96-well microtiter plates using CAMHB. […] The bacterial suspension with final inoculum 10^5 CFU/mL was transferred to the test medium containing the antibacterial substances. In each well of a 96-well microtiter plate was combined 50 μL of bacterial inoculum, 50 μL of antibiotic dilutions (or media for determination of the MIC of the antibiotic in the absence of test compound). Each plate included 4 wells with no bacterial inoculum (negative control) and 4 wells with no test compound and no antibiotic (positive control). The plates were incubated at 35° C. for 24 h. Purity check and colony counts on each inoculum suspension was performed to ensure that the final inoculum concentration routinely obtained closely approximates 5×10^5 CFU/mL. In addition the assay is routinely monitored by testing standard antibiotics and ensuring that MIC values are within the recommended ranges for the respective strains.
(§2) This test permits comparisons to be made between bacterial growth in the presence of antibiotic alone and bacterial growth in the presence of both an antibiotic and a novel (test) compound.

Escherichia coli CMY-7 = experiment: as above
Experimental: as §1, §2

Escherichia coli FOX-1 = experiment: as above
Experimental: as §1, §2

Escherichia coli FOX-2 = experiment: as above
Experimental: as §1, §2

Escherichia coli OXA-1 = experiment: as above
Experimental: as §1, §2

Escherichia coli OXA-7 = experiment: as above
Experimental: as §1, §2

Escherichia coli SHV-1 = experiment: as above
Experimental: as §1, §2

Escherichia coli SHV-4 = experiment: as above
Experimental: as §1, §2

Escherichia coli TEM-21 = experiment: as above
Experimental: as §1, §2

Escherichia coli TEM-36 = experiment: as above
Experimental: as §1, §2

Escherichia coli TEM-8 = experiment: as above
Experimental: as §1, §2

[1] = system: Klebsiella pneumoniae CMY-2; experiment: as above
Experimental: as §1, §2

[2] = system: Klebsiella pneumoniae LAT-2; experiment: as above
Experimental: as §1, §2

[3] = system: Klebsiella pneumoniae TEM-10; experiment: as above
Experimental: as §1, §2

[4] = system: Pseudomonas aeruginosa OXA-6; experiment: as above
Experimental: as §1, §2

[5] = system: Pseudomonas aeruginosa PSE-3; experiment: as above
Experimental: as §1, §2

Escherichia coli TEM-9 = experiment: as above
Experimental: as §1, §2

[6] = system: Enterobacter cloacae CTX-M9; experiment: MIC, characterised β-lactamase producing strain (Example 5, Table 7); details: CTXM9, combination at constant concentration ratio (2:1)
Text: (§3) Their MICs were compared with that of cefotaxime, cefotaxime/tazobactam, ceftazidime, ceftazidime/tazobactam, cefepime, cefepime/tazobactam, and piperacillin/tazobactam.

Escherichia coli CTX-M15 = experiment: as above; details: CTXM15, combination at constant concentration ratio (2:1)
Text: as §3

Escherichia coli CTX-M9 = experiment: as above; details: CTXM9, combination at constant concentration ratio (2:1)
Text: as §3

[7] = system: Klebsiella pneumoniae CTX-M14; experiment: as above; details: CTXM14, combination at constant concentration ratio (2:1)
Text: as §3

[8] = system: Klebsiella pneumoniae CTX-M15; experiment: as above; details: CTXM15, combination at constant concentration ratio (2:1)
Text: as §3

[9] = system: Klebsiella pneumoniae CTX-M1; experiment: as above; details: CTXM1, combination at constant concentration ratio (2:1)
Text: as §3

Klebsiella oxytoca LXA-1 = experiment: MIC, characterised β-lactamase producing strain (Example 5, Tables 5-7); details: Klebsiella oxytoca LXA-1, functional group 2b; LK-157 in combination constant 4 μg/mL
Experimental: The MIC experiments were performed in duplicate in 96-well microtiter plates using CAMHB. Serial twofold dilutions of each antibiotic either alone or in combination with constant concentration ratio of a β-lactamase inhibitor (2:1) were prepared in CAMHB. The bacterial suspension with final inoculum 10^5 CFU/mL was transferred to the test medium containing the antibacterial substances. In each well of a 96-well microtiter plate was combined 50 μL of bacterial inoculum, 50 μL of antibiotic dilutions (or media for determination of the MIC of the antibiotic in the absence of test compound). Each plate included 4 wells with no bacterial inoculum (negative control) and 4 wells with no test compound and no antibiotic (positive control). The plates were incubated at 35° C. for 24 h. Purity check and colony counts on each inoculum suspension was performed to ensure that the final inoculum concentration routinely obtained closely approximates 5×10^5 CFU/mL. In addition the assay is routinely monitored by testing standard antibiotics and ensuring that MIC values are within the recommended ranges for the respective strains.
as §2

[10] = Table 6, LK-157 at constant 4 μg/mL in combination
[11] = Table 7, combination at constant concentration ratio (2:1)

Compound: CO/N=C(\C(=O)N[C@@H]1C(=O)N2C(C(=O)O)=C(COC(C)=O)CS[C@H]12)c1csc(N)n1 [cefotaxime]
- MIC (Escherichia coli CMY-2; [10]): 32 µg/mL
- MIC (Escherichia coli CMY-7; [10]): 32 µg/mL
- MIC (Escherichia coli FOX-1; [10]): 2 µg/mL
- MIC (Escherichia coli FOX-2; [10]): 64 µg/mL
- MIC (Escherichia coli OXA-1; [10]): 0.5 µg/mL
- MIC (Escherichia coli OXA-7; [10]): 0.25 µg/mL
- MIC (Escherichia coli SHV-1; [10]): 0.063 µg/mL
- MIC (Escherichia coli SHV-4; [10]): 16 µg/mL
- MIC (Escherichia coli TEM-21; [10]): 32 µg/mL
- MIC (Escherichia coli TEM-36; [10]): 0.25 µg/mL
- MIC (Escherichia coli TEM-8; [10]): 4 µg/mL
- MIC [1, 10]: 16 µg/mL
- MIC [2, 10]: 16 µg/mL
- MIC [3, 10]: 0.5 µg/mL
- MIC [4, 10]: 16 µg/mL
- MIC [5, 10]: 16 µg/mL

Compound: CC(C)(O/N=C(\C(=O)N[C@@H]1C(=O)N2C(C(=O)[O-])=C(C[n+]3ccccc3)CS[C@H]12)c1csc(N)n1)C(=O)O [ceftazidime]
- MIC (Escherichia coli CMY-2; [11]): ≧128 μg/mL
- MIC (Escherichia coli CMY-7; [11]): ≧128 μg/mL
- MIC (Escherichia coli FOX-1; [11]): 8 µg/mL
- MIC (Escherichia coli FOX-2; [11]): ≧128 μg/mL
- MIC (Escherichia coli OXA-1; [11]): 0.25 µg/mL
- MIC (Escherichia coli OXA-7; [11]): 0.5 µg/mL
- MIC (Escherichia coli SHV-1; [11]): 0.25 µg/mL
- MIC (Escherichia coli SHV-4; [11]): ≧128 μg/mL
- MIC (Escherichia coli TEM-21; [11]): 16 µg/mL
- MIC (Escherichia coli TEM-36; [11]): 0.5 µg/mL
- MIC (Escherichia coli TEM-8; [11]): ≧128 μg/mL
- MIC (Escherichia coli TEM-9; Table 7, Escherichia coli TEM-9, combination at constant concentration ratio (2:1)): ≧128 μg/mL
- MIC [1, 11]: 64 µg/mL
- MIC [2, 11]: ≧128 μg/mL
- MIC [3, 11]: ≧128 μg/mL
- MIC [4, 11]: 2 µg/mL
- MIC [5, 11]: 4 µg/mL
- MIC [6]: 0.5 µg/mL
- MIC (Escherichia coli CTX-M15): 32 µg/mL
- MIC (Escherichia coli CTX-M9): 2 µg/mL
- MIC [7]: 8 µg/mL
- MIC [8]: 32 µg/mL
- MIC [9]: 16 µg/mL

Compound: CO/N=C(\C(=O)N[C@@H]1C(=O)N2C(C(=O)[O-])=C(C[N+]3(C)CCCC3)CS[C@H]12)c1csc(N)n1 [cefepime]
- MIC (Escherichia coli TEM-9; Escherichia coli TEM-9, functional group 2be, LK-157 in combination constant 4 μg/mL): 128 µg/mL
- MIC (Klebsiella oxytoca LXA-1): 0.125 µg/mL
